In patent publication US20230233553A1, “A NEW COMBINATION THERAPY FOR THE TREATMENT OF FGFR3- RELATED SKELETAL DISEASE” (INSERM (INSTITUT NATIONAL DE LA SANTÉ ET DE LA RECHERCHE …, priority 2020, published 2023):

Assays:
NPR2 [1] = assay: cGMP production in tibia growth plates using cGi500 FRET sensor; type: cell-based, mouse; conditions: for cGMP (CFP/YFP emission ratio from cGi500) on perfusion across the growth plate: newborn mouse tibia growth plate; for CNP-induced cGMP increase after FGF treatment: then FGF 80 min, newborn mouse tibia
Protocol: cGMP production in chondrocytes within intact growth plates was measured using tibias dissected from newborn mice (0-1 day old) that globally expressed one or two copies of the cGi500 FRET sensor, as previously described (Shuhaibar et al., 2017).Tibias were dissected and cultured overnight on Millicell membranes in BGJb medium with 0.1% bovine serum albumin, 100 units/ml of penicillin, and 100 μg/ml of streptomycin. In preparation for imaging, each tibia was slit to remove the tissue overlying the growth plate. Where indicated, the tibia was incubated in LB-100, cantharidin, or control medium, followed by addition of FGF18 (0.5 μg/ml+1 μg/ml heparin) or control medium containing heparin only. The tibia was then placed in a perfusion slide and the growth plate was imaged on the stage of a confocal microscope, as previously described (Shuhaibar et al., 2017).
NPR2 activity in chondrocytes of intact growth plates was measured as previously described, using mice expressing a FRET sensor for cGMP, cGi500 (Shuhaibar et al., 2017). Tibias were isolated from newborn mice, and the overlying tissue was excised to expose the growth plate for confocal imaging (Data not shown). When the NPR2 agonist C-type natriuretic peptide (CNP) was perfused across the growth plate, the CFP/YFP emission ratio from cGi500 increased, indicating an increase in cGMP, due to stimulation of the guanylyl cyclase activity of NPR2 (Data not shown).
To investigate if LB-100 counteracts the inactivation of NPR2 by FGF, we used the following protocol:Tibias expressing cGi500 were preincubated with solutions of 1, 5 or 10 μM LB-100 for 60 minutes. FGF was then added and the incubation was continued for an additional 80 minutes. Following these incubations, the tibia was placed in a perfusion slide for confocal imaging, and cGMP production by NPR2 was monitored by measuring the increase in CFP/YFP emission ratio in response to CNP.

Fgfr3+/+ femurs = assay: Ex vivo culture of fetal femurs from Fgfr3+/+ mice (growth in length and area); type: cell-based, mouse; conditions: BMN-111 0.1 μM, LB-100 10 μM, 6 day culture
Protocol: (§1) FIG. 1. LB-100 and BMN-111 act synergistically to stimulate growth in fetal femurs from Fgfr3^Y367C/+ mice.(A) Diagram showing sites of action of LB-100 and BMN-111. (B) Representative photographs of fetal femurs from E16.5 day old Fgfr3+/+ (wildtype) and Fgfr3^Y367+ mice, before (D0) and after a 6 day (D6) culture with the indicated treatments. […] For all experiments, the concentration of BMN-111 was 0.1 μM, and the concentration of LB-100 was 10 μM. Symbols in graphs C-E indicate individual bones (n=4−10). Bars represent mean ±SEM and data were analyzed by unpaired two-tailed t-tests. Asterisks indicate significant differences (p<0.05) between indicated groups; n.s. indicates no significant difference (p>0.05).
(§2) Femurs were cultured ex vivo, as described previously (Jonquoy et al., 2012; Lorget et al., 2012). The left femur was cultured in the presence of LB-100 (10 μM), BMN-111 (0.1 μM), or LB-100 (10 μM)+BMN-111 (0.1 μM), and compared with the non-treated right femur. The bone's length was measured on day 0 (D0) and day 6 (D6). Images were captured with an Olympus SZX12 stereo microscope and quantified using cellSens software (Olympus). The results were expressed as the increase in femur length or area (D6-D0) in the presence or absence of LB-100, BMN-111, or LB-100+BMN-111.

Fgfr3^Y367C/+ femurs = assay: Ex vivo culture of fetal femurs from Fgfr3^Y367C/+ mice (growth in length and area); type: cell-based, mouse; conditions: E16.5 Fgfr3^Y367C/+ femurs, 6 day culture; BMN-111 0.1 μM, LB-100 10 μM
Protocol: as §1, §2

[2] = tested on: children 5 to 14 years of age with achondroplasia; conditions: for up to 42 months; Savarirayan et al., 2019; cited from earlier work
[3] = tested on: growth plates of Fgfr3^Y367C/+ femurs; assay: Histology and immunohistochemistry of growth plates of ex vivo cultured Fgfr3^Y367C/+ femurs; type: cell-based, mouse
Protocol: FIG. 2. Dual action of LB-100 and BMN-111 improves chondrocyte differentiation in growth plates of ex-vivo cultured Fgfr3^Y367C/+ femurs. Mean area of individual hypertrophic chondrocytes in proximal growth plates of femurs treated (n=4−6 bones measured for each condition, with 54-137 cells measured for each bone). Data were analyzed by one-way ANOVA followed by the Holm-Sidak multiple comparison test (*p<0.05, **p<0.01, ****p<0.0001).
Fetal femur (E16.5) explants were fixed in 4% paraformaldehyde, decalcified with EDTA (0.4 M), and embedded in paraffin. Serial 5 μm sections were stained with hematoxylin-eosin-safran (HES) reagent, using standard protocols. For immunohistochemical assessment, sections were labeled with the following antibodies and a Dako Envision Kit: anti-COL X (BIOCYC, N.2031501005; 1:50 dilution), anti-phosphorylated ERK1-2 ([…]) (Cell Signaling Technology, #4370; 1:100 dilution), and anti-S0X9 (polyclonal antibody, Santa Cruz Biotechnology Inc., catalog D0609; dilution 1:75). Images were captured with an Olympus PD70-IX2-UCB microscope and quantified using cellSens software.
We measured the total area occupied by chondrocytes within the whole growth plate and the area occupied by COLX-positive chondrocytes. The area for proliferating chondrocytes was calculated by subtracting the COLX-positive area from the whole growth plate area.

NPR2 [4] = conditions: cantharidin 100 μM (Shuhaibar et al., 2017); cited from earlier work
[5] = Chung et al., 2017; cited from earlier work
NPR2 [6] = assay: Phos-tag gel electrophoresis / western blot of NPR2 in rib chondrocyte cultures; type: cell-based, mouse
Protocol: Rib cages were dissected from newborn (0-2 day old) mice, and trimmed to remove the skin, spinal cord, and soft tissue around the sternum and ribs. Non-chondrocyte tissue was digested away by incubating the rib cages in 2 mg/ml pronase in PBS for one hour in a shaking water bath at 37° C., and then incubated in 3 mg/ml collagenase D in medium for one hour. After washing, the rib cages were transferred to a dish with fresh collagenase D and incubated for 5-6 hours, with trituration at 2 hours, to release the chondrocytes. The isolated cells were passed through a 40 um nylon cell strainer, resuspended in DMEM/F12 medium with 10% fetal bovine serum, 100 units/ml of penicillin, and 100 μg/m1 of streptomycin, and plated in 35 mm tissue culture dishes, at a cell density corresponding to one newborn mouse per plate. The cells were cultured for 3 days, at which point they were ˜75-90% confluent, then washed with PBS and incubated in serum-free medium for 18 hours. The cells were then incubated in LB-100 (10 μM), or control medium, followed by addition of FGF18 (0.5 ug/ml+1 μg/ml heparin) or control medium containing heparin only.
At end of the incubation period, dishes were washed in PBS and cells lysed in 250 μl of 1% SDS containing 10 mM sodium fluoride, 1 μM microcystin, and Roche protease inhibitor cocktail. Protein content was determined by a BCA assay. […]

PPP1 = conditions: same conditions, DiFMUP; Richard Honkanen, personal communication; cited from earlier work
PPP2 = PPP2 (Homo sapiens, UniProt P67775); conditions: in vitro, DiFMUP as substrate (D'Arcy et al., 2019); cited from earlier work
PPP2, sequence (P67775 whole entry): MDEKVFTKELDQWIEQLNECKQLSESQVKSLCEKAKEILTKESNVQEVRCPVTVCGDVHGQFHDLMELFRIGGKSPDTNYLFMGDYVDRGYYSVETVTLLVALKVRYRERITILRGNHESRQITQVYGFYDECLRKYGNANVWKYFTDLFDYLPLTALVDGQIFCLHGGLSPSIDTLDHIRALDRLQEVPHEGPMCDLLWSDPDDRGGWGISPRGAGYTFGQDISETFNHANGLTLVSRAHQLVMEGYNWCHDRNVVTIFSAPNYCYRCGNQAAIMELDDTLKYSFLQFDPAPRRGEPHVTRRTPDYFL

PPPS = molecular target: T1, PPPS (Homo sapiens, UniProt P53041); conditions: in vitro, DiFMUP as substrate (D'Arcy et al., 2019); cited from earlier work
T1 sequence (P53041 1-499): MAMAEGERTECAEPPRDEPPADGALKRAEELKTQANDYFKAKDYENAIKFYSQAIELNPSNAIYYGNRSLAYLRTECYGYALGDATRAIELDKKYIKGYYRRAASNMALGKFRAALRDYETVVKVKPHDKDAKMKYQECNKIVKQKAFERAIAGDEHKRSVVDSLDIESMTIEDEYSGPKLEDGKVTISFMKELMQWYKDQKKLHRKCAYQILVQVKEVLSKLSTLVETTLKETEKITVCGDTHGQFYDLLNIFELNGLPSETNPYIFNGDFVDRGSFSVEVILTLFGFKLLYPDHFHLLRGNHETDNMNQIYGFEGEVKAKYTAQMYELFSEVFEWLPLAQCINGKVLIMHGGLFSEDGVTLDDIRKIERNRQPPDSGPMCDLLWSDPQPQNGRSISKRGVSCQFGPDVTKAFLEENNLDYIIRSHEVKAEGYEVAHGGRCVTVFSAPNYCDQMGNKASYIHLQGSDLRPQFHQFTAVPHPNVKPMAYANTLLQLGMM

ANP: A-type natriuretic peptide, which activates the NPR1 guanylyl cyclase
cGMP (CFP/YFP emission ratio from cGi500) on perfusion across the growth plate (NPR2 [1]): did not increase cGMP

[Cyc(23,39)]H2NPGQEHPNARKYKGANKKGLSKGCFGLKLDRIGSMSGLGC—OH [BMN-111]
Rate of bone growth (length and area) (Fgfr3+/+ femurs): increased the rate of bone growth | NPR2 activity in growth plate chondrocytes (NPR2 [1]; BMN-111 0.1 μM): stimulated NPR2 activity | Mean rate of increase in bone length relative to vehicle/untreated bones (growth rate ratio) (Fgfr3^Y367C/+ femurs): 1.77 | Rate of increase of total bone and cartilage area relative to control (growth rate ratio) (Fgfr3^Y367C/+ femurs): 1.51 | Annualized growth velocity in phase 2 [2]: sustained increase in annualized growth velocity | Size of Fgfr3^Y367C/+ hypertrophic chondrocytes ([3]; COLX immunostaining, ex vivo cultured femurs): increased the size | Increase of total proliferative growth plate area of the femur over vehicle ([3]; Fgfr3^Y367C/+ femurs, average): 20%

CCN(CC)/[N+]([O-])=N/O [DEA/NO]
cGMP (CFP/YFP emission ratio from cGi500) on perfusion across the growth plate (NPR2 [1]): did not increase cGMP

C[C@@]12C(=O)OC(=O)[C@]1(C)[C@H]1CC[C@@H]2O1 [cantharidin]
Inactivation of NPR2 in growth plate chondrocytes by FGF (NPR2 [4]): inhibits the inactivation of NPR2 in growth plate chondrocytes by FGF

CN1CCN(C(=O)C2C3CCC(O3)C2C(=O)O)CC1 (stereo not drawn) [LB-100, 3-(4-methylpiperazine-1-carbonyl)-7-oxabicyclo[2.2.1]heptane-2-carboxylic acid]
CNP-induced cGMP increase after FGF treatment (NPR2 [1]; 1 μM LB-100 preincubation 60 min): had no effect | Effectiveness in counteracting NPR2 inactivation by FGF compared with cantharidin (NPR2 [1]; 5 μM LB-100 equivalent to 10 μM cantharidin): more effective than cantharidin | CNP-induced cGMP increase after FGF treatment (NPR2 [1]; 5 μM LB-100 preincubation 60 min): enhanced | Chondrocyte morphology in live growth plate (toxicity) (NPR2 [1]; 10 μM LB-100, confocal microscopy): no visible change in chondrocyte morphology | CNP-induced cGMP increase after FGF treatment (NPR2 [1]; 10 μM LB-100 preincubation 60 min): enhanced | Toxicity in phase I clinical trial [5]: little toxicity | Mean rate of increase in bone length relative to vehicle/untreated bones (growth rate ratio) (Fgfr3^Y367C/+ femurs): 1.04 | Rate of increase of total bone and cartilage area relative to control (growth rate ratio) (Fgfr3^Y367C/+ femurs): 1.40 | Cell morphology of rib chondrocytes (NPR2 [6]; 1 hour incubation with 10 μM LB-100): did not cause any visible change in cell morphology | NPR2 dephosphorylation in response to FGF (NPR2 [6]; preincubation with 10 μM LB-100, primary rib chondrocytes): only partial | IC50 (PPP1): 1800 ± 22 nM | IC50 (PPP2): 390 ± 13 nM | IC50 (PPPS): 1820 ± 93 nM

B1: FGF18: fibroblast growth factor used with heparin to activate FGF receptor (protein, UniProt O76093 28-207, looked up)
Fibroblast growth factor 18: EENVDFRIHVENQTRARDDVSRKQLRLYQLYSRTSGKHIQVLGRRISARGEDGDKYAQLLVETDTFGSQVRIKGKETEFYLCMNRKGKLVGKPDGTSKECVFIEKVLENNYTALMSAKYSGWYVGFTKKGRPRKGPKTRENQQDVHFMKRYPKGQPELQKPFKYTTVTKRSRRIRPTHPA
cGMP increase in response to CNP perfusion after exposure to FGF18 (NPR2 [1]; FGF18 0.5 μg/ml + 1 μg/ml heparin): suppressed the cGMP increase in response to CNP perfusion
